The values below come from patent publication US20150284399A1, “PROCESSES FOR THE PREPARATION OF S1P1 RECEPTOR MODULATORS AND CRYSTALLINE FORMS THEREOF” (Arena Pharmaceuticals, Inc., priority 2010, published 2015).

Data set [1] can be described thus: Dynamic moisture sorption (DMS). The class given is physicochemical. Conditions: crystalline form. The method, then:
Samples are prepared for dynamic moisture-sorption analysis by placing ˜5 mg to ˜20 mg of compound in a tarred sample holder on the VTI balance. The instrument is a dynamic moisture-sorption analyzer, VTI Corporation, SGA-100. A drying step is run at 40° C. and ˜1% RH for 1 h. The isotherm temperature is 25° C. A % weight change over 10 min (5 weight readings) of dm/dt=0.010 or 2 h, whichever occurs first, is required before continuing to the next step. The water content of the sample equilibrated as described above was determined from 30% RH to 90% RH and then back down to 10% RH.

Another data set has as its target T1, S1P1 receptor (Homo sapiens, UniProt P21453).
T1 construct: expressed in transfected cells; host or cells: CHO-K1 (ATCC CCL-61), stably transfected
The data set can be described thus: HTRF assay for direct cAMP measurement. The class given is cell-based. Conditions: recombinant CHO-K1 cells stably transfected with S1P1; agonist detected as decrease of cAMP concentration. The source says: Compounds were screened for agonists of the S1P1 receptor (e.g., human S1P1 receptor) using the HTRF® assay for direct cAMP measurement (Gabriel et al., Assay and Drug Development Technologies, 1:291-303, 2003) and recombinant CHO-K1 cells stably transfected with S1P1. CHO-K1 cells were obtained from ATCC® (Manassas, Va.; Catalog #CCL-61). An agonist of the S1P1 receptor was detected in the HTRF® assay for direct cAMP measurement as a compound which decreased cAMP concentration. HTRF® assay also was used to determine EC50 values for S1P1 receptor agonists.
HTRF® assay kit was purchased from Cisbio-US, Inc. (Bedford, Mass.; Catalog #62AM4PEC). […] The specific signal (i.e., fluorescence resonance energy transfer, FRET) is inversely proportional to the concentration of unlabeled cAMP in the standard or sample.
The fluorescence ratio (665 nm/620 nm) of the standards (0.17 to 712 nM cAMP) included in the assay was calculated and used to generate a cAMP standard curve according to the kit manufacturer's instructions. The fluorescence ratio of the samples (test compound or compound buffer) was calculated and used to deduce respective cAMP concentrations by reference to the cAMP standard curve. […]
HTRF® readout was accomplished using a PHERAstar (BMG LABTECH Inc., Durham, N.C.) or EnVision™ (PerkinElmer, Fremont Calif.) microplate reader.
Background: In TR-FRET formats the signal depends on donor and acceptor labels being close together.

Another data set deals with Male Sprague-Dawley rats. As to the kind of experiment: Rat Peripheral Lymphocyte Lowering (PLL) assay. The class given is in vivo. To be noted: 1.0 mg/kg oral dose in 0.5% methyl cellulose in water; 5 h post-dose; vs vehicle; FIG. 16. As for the experimental part: Male Sprague-Dawley rats (Charles River Laboratories, Hollister, Calif.) were housed and maintained in humidity (40 to 60%) and temperature (68 to 72° F.) controlled facility on a 12 h: 12 h light/dark cycle (lights on at 6:30 am) with free access to food (Harlan Teklad, Orange, Calif., Rodent Diet 8604) and water. Rats were allowed (approximately) one week of habituation to the animal facility before testing.
Rats were given a 1.0 mg/kg oral dose of (R)-2-(9-chloro-7-(4-isopropoxy-3-(trifluoromethyl)benzyloxy)-2,3-dihydro-1H-pyrrolo[1,2-a]indol-1-yl)acetic acid or dosing vehicle (0.5% methyl cellulose in water) in a total volume of 1 mL/kg. Peripheral blood samples were collected at 5 h post-dose. Blood was collected via indwelling catheter. A complete cell count (CBC), including lymphocyte count, was obtained using a CELL-DYN® 3700 (Abbott Laboratories, Abbott Park, Ill.) instrument. Results are presented in FIG. 16, in which peripheral blood lymphocyte (PBL) count is shown for the 5 hour group.

T1 sequence (P21453 whole entry): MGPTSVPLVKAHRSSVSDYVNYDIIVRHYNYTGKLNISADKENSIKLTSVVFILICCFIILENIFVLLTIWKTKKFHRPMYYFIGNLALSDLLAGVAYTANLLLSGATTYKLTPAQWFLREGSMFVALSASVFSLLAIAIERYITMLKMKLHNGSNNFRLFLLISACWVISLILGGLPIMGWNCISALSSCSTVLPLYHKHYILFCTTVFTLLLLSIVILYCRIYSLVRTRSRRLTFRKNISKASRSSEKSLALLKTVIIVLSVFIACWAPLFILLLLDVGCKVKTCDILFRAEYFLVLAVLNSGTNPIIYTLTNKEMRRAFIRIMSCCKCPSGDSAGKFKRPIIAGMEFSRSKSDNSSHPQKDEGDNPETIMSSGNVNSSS

As a reminder, the EC50 is the concentration at which the effect is half-maximal. On to `CC(C)Oc1ccc(COc2ccc3c(c2)c(Cl)c2n3CC[C@@H]2CC(=O)O)cc1C(F)(F)F` [(R)-2-(9-chloro-7-(4-isopropoxy-3-(trifluoromethyl)benzyloxy)-2,3-dihydro-1H-pyrrolo[1,2-a]indol-1-yl)acetic acid], for which the “hygroscopicity (DMS)” value in data set [1] (10% RH to 90% RH at 25° C.) was “non-hygroscopic”. Also, the “DMS weight gain over the full range of % RH tested” value in data set [1] (10% RH to 90% RH at 25° C., listed as Crystalline form of (R)-2-(9-chloro-7-(4-isopropoxy-3-(trifluoromethyl)benzyloxy))) is reported as “FIG. 3: gains less than about 0.1% weight over the full range”; in data set [1] (10% RH to 90% RH at 25° C., listed as crystalline form of (R)-2-(9-chloro-7-(4-isopropoxy-3-(trifluoromethyl)benzyloxy))), “less than 0.1 % weight”. In addition, in data set [1] (adsorption phase of the DMS cycle at about 70% RH), the “DMS maximum weight gain” value is reported as “about 0.06%”. Moreover, the EC50 on S1P1 receptor amounted to 0.028 nM. In addition, in the data set on Male Sprague-Dawley rats, the “peripheral blood lymphocyte (PBL) lowering (lymphopenia)” value is “exhibited activity for inducing PBL lowering (lymphopenia)”.
